Measurements as given in patent US10450314B2, “Pteridine derivatives as modulators of ROR gamma” (Boehringer Ingelheim International GmbH, priority 2015, dated 2019).

Columns and labels:
[1] = target: T1, RORγ (Homo sapiens, UniProt P51449); assay: RORγ Reporter Gene Assay (RGA), luciferase transactivation in transiently transfected HEK 293 cells; type: cell-based; conditions: HEK 293 cells cotransfected with pGL4.3 luc2P/GAL4UAS and pBIND Gal4DBD hRORC LBD; 20-24 h incubation
T1 construct: expressed in transfected cells; host or cells: HEK 293 cells, transiently cotransfected with pGL4.3 luc2P/GAL4UAS/Hygro reporter
T1 sequence (P51449 269-508 limits assumed): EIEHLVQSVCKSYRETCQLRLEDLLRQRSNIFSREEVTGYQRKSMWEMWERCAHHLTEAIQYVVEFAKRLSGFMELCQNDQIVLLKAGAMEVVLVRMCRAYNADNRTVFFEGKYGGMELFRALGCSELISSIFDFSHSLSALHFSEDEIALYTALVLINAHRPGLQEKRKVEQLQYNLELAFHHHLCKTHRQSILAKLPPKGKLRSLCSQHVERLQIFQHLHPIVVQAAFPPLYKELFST
Procedure: Reporter Gene Assay (RGA)
A nuclear receptor transactivation assay is performed to quantitate the ability of test compounds to inhibit RORγ transactivation of a luciferase reporter. A similar assay is described in: Khan et al., Bioorganic & Medicinal Chemistry Letters 23 (2013), 532-536. The system uses transiently transfected HEK 293 cells cotransfected with two plasmids (pGL4.3, luc2P/GAL4UAS/Hygro, and pBIND, Gal4DBD hRORC LBD1-3). The positive control is co-transiently transfected with both plasmids, and the negative control contains the pGL4.3 promoter sequence. Assays are assembled in 384 well plates where transiently transfected cells and test compound at varying concentrations are incubated for 20-24 h. The next day, assays plates are taken out and equilibrated at RT for 20-30 minutes. Bright-Glo™ Luciferase Assay System is used to detect Luciferase production. After addition of Bright GLO detection reagent, the plates are incubated at RT for 20 minutes. The plates are read on an Envision plate reader to measure luminescence signal. The RLU signal is converted to POC relative to control and blank wells.
Compound Dilution Buffer:
Bright Glo Luciferase Assay System: Promega #E2620
Thaw lysis buffer provided in kit, add 100 mL lysis buffer to substrate powder.

[2] = Human liver microsome (HLM) metabolic stability assay; type: in vitro ADME; conditions: human liver microsomes, 1 uM compound, 37° C., 60 min; % hepatic blood flow
Procedure: Assessment of Metabolic Stability
The 5 time point, high-throughput human liver microsome (HLM) metabolic stability assay is designed to determine in vitro compound metabolism. Compounds are incubated with HLMs at a concentration of 1 uM, at 37° C., for a total of 60 min. The percent of compound remaining at 5, 15, 30, and 60 min is used to calculate the t1/2 (min), CLint (mL/min/kg), CLh (mL/min/kg), and % Qh. The assay is based on a 96-well format and can accommodate up to 92 compounds per plate (n=1).
Using the 96-well multi-channel head, the Biomek FX, equipped with a Peltier heating block/shaker, is programmed to accomplish the following steps: • 1. Pipette 175 uL of 1.15 mg/mL microsomes into each of the 96 conical inserts (Analytical Sales and Products, catalog number 96PL05) that fit into the plate of the Peltier heating block/shaker (the incubation plate) • 2. Add 5 uL of compounds from the assay plate to the microsomes and shake the mixture at 600 rpm at 42.1° C. for 10 min (a setting of 42.1° C. on the Peltier is required for the samples to incubate at 37° C.) • 3. After 10 min, prompt the user to add the NADPH plate to the deck and add 20 uL from the NADPH plate to the incubation plate to start the reaction • 4. Add 215 uL of 100%, cold acetonitrile containing an internal standard(s) to a 0 minute, 5 minute, 15 minute, 30 minute, and 60 minute “quench” plate • 5. At 0 min, 5 min, 15 min, 30 min, and 60 min into the incubation, aspirate 12 uL from the incubation mixture and add it to the quench solution to stop the reaction • 6. Add 185 uL HPLC grade water to each well of the 0, 5, 15, 30 and 60 minute quench plates to dilute compounds to the appropriate concentration for the mass spectrometer
After all time points are collected, the quench plates are sealed with 96-well pierceable plate mats or heat sealing foil and centrifuged at 3000 rpm for 15 min to pellet the microsomes.
The plates are analyzed using LC/MS/MS with electron spray ionization (ESI) and the previously determined MRM transitions. The LC method includes the following parameters:
Using an Excel template in Activitybase, the peak areas corresponding to 5, 15, 30 and 60 min are compared to the peak area at 0 min to calculate the percent of remaining compound using the following equation:
Percent compound remaining=(AUC at Time t min/AUC at Time 0 min)×100 where t=0, 5, 15, 30 or 60 min.
Time (min) is plotted against the natural logarithm (Ln) of the percent compound remaining to determine the slope. The slope is used to calculate t1/2 (min) using the equation, t1/2=0.693/slope.
Clint, Intrinsic Clearance

Structure (SMILES) | IC50 [1] | HLM (% Qh) [2]
CCS(=O)(=O)c1ccc(CNc2nc3c(C)nc(-c4c(C)ncnc4C4CC4)nc3n([C@@H](C)CF)c2=O)cn1 [Example 50] | 2700 nM | <24 % Qh
CC[C@H](C)n1c(=O)c(NCc2ncc(S(=O)(=O)CC)cn2)nc2c(C)nc(-c3c(OC)ncnc3C3CC3)nc21 [Example 15] | 150 nM | <24 % Qh
CCS(=O)(=O)c1cnc(CNc2nc3c(C)nc(-c4c(C)ncnc4C4CC4)nc3n(C(C)C(F)F)c2=O)nc1 (centres unmarked) [Example 89] | 225 nM | <24 % Qh
CCS(=O)(=O)c1cnc(CNc2nc3c(C)nc(-c4c(C)ncnc4C4CC4)nc3n([C@H](C)C(F)F)c2=O)nc1 [Example 93] | 185 nM | <24 % Qh
CC[C@@H](C)n1c(=O)c(NCC2CCN(S(=O)(=O)CC)CC2)nc2c(C)nc(-c3c(C)ncnc3C3CC3)nc21 [Example 24] | 120 nM | 69 % Qh
CCS(=N)(=O)c1ccc(CNc2nc3c(C)nc(-c4c(OC)ncnc4C4CC4)nc3n([C@@H](C)C(F)(F)F)c2=O)nc1 (single isomer, unassigned) [Example 101b] | 315 nM | <24 % Qh
CCS(=O)(=O)c1ccc(CNc2nc3c(C)nc(-c4c(OC)ncnc4C4CC4)nc3n([C@@H](C)C(F)(F)F)c2=O)nc1 [Example 88] | 102 nM | 38 % Qh
CCS(=N)(=O)c1ccc(CNc2nc3c(C)nc(-c4c(OC)ncnc4C4CC4)nc3n([C@@H](C)C(F)(F)F)c2=O)nc1 (single isomer, unassigned) [Example 101a] | 365 nM | <24 % Qh
CCS(=O)(=O)c1cnc(CNc2nc3c(C)nc(-c4c(OC)ncnc4C4CC4)nc3n([C@@H](C)C3CC3)c2=O)nc1 [Example 10] | 97 nM | 27 % Qh
CC[C@@H](C)n1c(=O)c(NCc2cnc(S(C)(=O)=O)cn2)nc2c(C)nc(-c3c(C)ncnc3C3CC3)nc21 [Example 55] | 265 nM | <24 % Qh
CC[C@@H](C)n1c(=O)c(NCc2ccc(S(=O)(=O)CC)cn2)nc2c(OC)nc(-c3c(C)ncnc3C3CC3)nc21 [Example 21] | 1900 nM | <24 % Qh
CC[C@@H](C)n1c(=O)c(NCC2CCN(S(C)(=O)=O)CC2)nc2c(C)nc(-c3c(C)ncnc3C3CC3)nc21 [Example 59] | 98 nM | 78 % Qh
CC[C@H](C)n1c(=O)c(NCc2ccc(S(N)(=O)=O)cn2)nc2c(C)nc(-c3c(OC)ncnc3C3CC3)nc21 [Example 81] | 185 nM | <24 % Qh
CC[C@H](C)n1c(=O)c(NCc2ccc(S(C)(=O)=O)cn2)nc2c(C)nc(-c3c(C)ncnc3C3CC3)nc21 [Example 14] | 115 nM | <24 % Qh
CC[C@H](C)n1c(=O)c(NCc2ccc(S(C)(=N)=O)cc2)nc2c(C)nc(-c3c(OC)ncnc3C3CC3)nc21 (some centres unmarked) [Example 83] | 250 nM | 32 % Qh
COc1ncnc(C2CC2)c1-c1nc(C)c2nc(NCc3ccc(S(C)(=O)=O)cn3)c(=O)n([C@@H](C)C3CC3)c2n1 [Example 5] | 73 nM | 28 % Qh
CC[C@@H](C)n1c(=O)c(NCc2ccc(S(=O)(=O)CC)cn2)nc2c(CO)nc(-c3c(C)ncnc3C3CC3)nc21 [Example 51] | 230 nM | <24 % Qh

Structure (SMILES) | IC50 [1] | HLM (% Qh) [2]
CC[C@@H](C)n1c(=O)c(NCc2ccc(S(C)(=O)=O)cn2)nc2c(CF)nc(-c3c(C)ncnc3C3CC3)nc21 [Example 54] | 225 nM | 41 % Qh
Cc1ncnc(C2CC2)c1-c1nc(C)c2nc(NCc3ccc(S(C)(=N)=O)cn3)c(=O)n([C@@H](C)C(F)(F)F)c2n1 (single isomer, unassigned) [Example 106b] | 840 nM | 28 % Qh
Cc1ncnc(C2CC2)c1-c1nc(C)c2nc(NCc3ccc(S(C)(=O)=O)cn3)c(=O)n(C(C)C(F)F)c2n1 (centres unmarked) [Example 90] | 235 nM | <24 % Qh
CC[C@@H](C)n1c(=O)c(NCc2ccc(S(=N)(=O)CC)cc2)nc2c(C)nc(-c3c(C)ncnc3C3CC3)nc21 (single isomer, unassigned) [Example 26a] | 109 nM | 25 % Qh
Cc1ncnc(C2CC2)c1-c1nc(C)c2nc(NCc3ccc(S(C)(=N)=O)cc3)c(=O)n([C@@H](C)C3CC3)c2n1 (single isomer, unassigned) [Example 27b] | 265 nM | <24 % Qh
CC[C@@H](C)n1c(=O)c(NCc2ncc(S(=O)(=O)CC)cn2)nc2c(C)nc(-c3c(OC)ncnc3C3CC3)nc21 [Example 4] | 180 nM | <24 % Qh
CC[C@@H](C)n1c(=O)c(NCc2ccc(S(C)(=O)=O)cn2)nc2c(C)nc(-c3c(C)ncnc3C3CC3)nc21 [Example 73] | 155 nM | <24 % Qh
CC[C@@H](C)n1c(=O)c(NCc2ccc(S(=N)(=O)CC)cc2)nc2c(C)nc(-c3c(OC)ncnc3C3CC3)nc21 (single isomer, unassigned) [Example 29b] | 170 nM | 48 % Qh
CCS(=O)(=O)c1ccc(CNc2nc3c(C)nc(-c4c(C)ncnc4C4CC4)nc3n([C@@H](C)C(F)(F)F)c2=O)cn1 [Example 82] | 225 nM | <24 % Qh
CCS(=O)(=O)c1ccc(CNc2nc3c(C)nc(-c4c(OC)ncnc4C4CC4)nc3n(C(C)C)c2=O)nc1 [Example 77] | 680 nM | <24 % Qh
CC[C@@H](C)n1c(=O)c(NCc2ncc(S(C)(=O)=O)cn2)nc2c(C)nc(-c3c(OC)ncnc3C3CC3)nc21 [Example 56] | 1100 nM | <24 % Qh
CC[C@@H](C)n1c(=O)c(NCc2ccc(S(C)(=O)=O)cn2)nc2c(CO)nc(-c3c(C)ncnc3C3CC3)nc21 [Example 52] | 335 nM | <24 % Qh
CC[C@@H](C)n1c(=O)c(NCc2ccc(S(=O)(=O)CC)cn2)nc2c(CO)nc(-c3c(OC)ncnc3C3CC3)nc21 [Example 1] | 200 nM | <24 % Qh
CCS(=N)(=O)c1ccc(CNc2nc3c(C)nc(-c4c(C)ncnc4C4CC4)nc3n([C@@H](C)C(F)(F)F)c2=O)cc1 (single isomer, unassigned) [Example 34b] | 170 nM | <24 % Qh
COc1ncnc(C2CC2)c1-c1nc(C)c2nc(NCc3ccc(S(N)(=O)=O)cn3)c(=O)n([C@@H](C)C(F)(F)F)c2n1 [Example 95] | 150 nM | 40 % Qh
CCS(=N)(=O)c1ccc(CNc2nc3c(C)nc(-c4c(C)ncnc4C4CC4)nc3n([C@@H](C)C3CC3)c2=O)cc1 (single isomer, unassigned) [Example 36b] | 245 nM | <24 % Qh
CC[C@@H](C)n1c(=O)c(NCc2ccc(S(=N)(=O)CC)cc2)nc2c(C)nc(-c3c(OC)ncnc3C3CC3)nc21 (single isomer, unassigned) [Example 29a] | 235 nM | 73 % Qh
